{"source": "paper PMC7044277", "about": "(Nature Communications, 2020)", "type_in_all_cases": "cell-based", "key": {"320 non-olfactory GPCRs [1]": {"target": "T1, 320 non-olfactory GPCRs (Homo sapiens, UniProt P18089)", "T1 construct": "expressed in transfected cells; host or cells: HTLA cells", "T1 sequence (P18089 whole entry)": "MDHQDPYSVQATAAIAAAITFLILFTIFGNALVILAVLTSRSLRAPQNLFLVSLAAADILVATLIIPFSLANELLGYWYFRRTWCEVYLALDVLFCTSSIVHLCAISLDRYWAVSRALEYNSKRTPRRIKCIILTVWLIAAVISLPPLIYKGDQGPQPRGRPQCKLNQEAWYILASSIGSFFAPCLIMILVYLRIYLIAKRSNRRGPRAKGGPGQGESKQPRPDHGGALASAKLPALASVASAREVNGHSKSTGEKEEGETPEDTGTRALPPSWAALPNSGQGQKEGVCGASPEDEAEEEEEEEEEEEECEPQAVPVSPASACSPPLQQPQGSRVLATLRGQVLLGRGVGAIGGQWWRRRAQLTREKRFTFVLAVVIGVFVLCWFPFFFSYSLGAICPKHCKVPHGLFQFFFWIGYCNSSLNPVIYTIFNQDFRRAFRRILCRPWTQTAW"}, "320 non-olfactory GPCRs [2]": {"target": "T2, 320 non-olfactory GPCRs (Homo sapiens, UniProt P24530)", "T2 construct": "expressed in transfected cells; host or cells: HTLA cells", "T2 sequence (P24530 27-442)": "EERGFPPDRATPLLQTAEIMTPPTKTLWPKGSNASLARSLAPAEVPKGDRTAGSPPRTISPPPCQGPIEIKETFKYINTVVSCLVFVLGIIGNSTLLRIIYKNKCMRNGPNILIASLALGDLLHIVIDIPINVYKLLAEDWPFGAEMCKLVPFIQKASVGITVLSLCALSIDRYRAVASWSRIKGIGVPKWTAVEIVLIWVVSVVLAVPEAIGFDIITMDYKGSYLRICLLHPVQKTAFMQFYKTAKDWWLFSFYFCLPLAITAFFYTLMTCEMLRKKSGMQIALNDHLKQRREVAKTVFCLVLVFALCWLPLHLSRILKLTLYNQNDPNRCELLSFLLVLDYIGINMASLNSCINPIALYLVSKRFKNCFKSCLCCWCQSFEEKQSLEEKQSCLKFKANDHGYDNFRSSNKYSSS"}, "320 non-olfactory GPCRs [3]": {"target": "T3, 320 non-olfactory GPCRs (Homo sapiens, UniProt P43116)", "T3 construct": "expressed in transfected cells; host or cells: HTLA cells", "T3 sequence (P43116 whole entry)": "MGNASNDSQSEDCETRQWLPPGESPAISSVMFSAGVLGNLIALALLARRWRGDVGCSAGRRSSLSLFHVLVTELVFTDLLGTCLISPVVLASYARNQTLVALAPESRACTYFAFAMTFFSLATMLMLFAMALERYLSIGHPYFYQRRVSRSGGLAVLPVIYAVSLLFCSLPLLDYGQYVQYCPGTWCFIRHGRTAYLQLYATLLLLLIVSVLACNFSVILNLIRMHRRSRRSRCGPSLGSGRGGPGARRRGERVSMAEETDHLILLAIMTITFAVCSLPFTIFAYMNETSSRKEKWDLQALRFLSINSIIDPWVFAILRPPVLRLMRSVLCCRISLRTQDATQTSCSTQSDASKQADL", "conditions": "receptor PTGER2; replicate values, Fig_4g"}, "320 non-olfactory GPCRs [4]": {"target": "T4, 320 non-olfactory GPCRs (Homo sapiens, UniProt Q96LB0)", "T4 construct": "expressed in transfected cells; host or cells: HTLA cells", "T4 sequence (Q96LB0 whole entry)": "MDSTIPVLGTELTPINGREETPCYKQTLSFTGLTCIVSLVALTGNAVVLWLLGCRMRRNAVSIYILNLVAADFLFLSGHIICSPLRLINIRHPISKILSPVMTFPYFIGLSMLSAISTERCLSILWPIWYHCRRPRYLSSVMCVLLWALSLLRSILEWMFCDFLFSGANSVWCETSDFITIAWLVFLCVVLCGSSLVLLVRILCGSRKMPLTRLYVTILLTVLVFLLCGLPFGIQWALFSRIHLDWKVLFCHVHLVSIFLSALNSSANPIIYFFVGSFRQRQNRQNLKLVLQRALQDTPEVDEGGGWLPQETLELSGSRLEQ", "conditions": "receptor MRGPRX3; replicate values, Fig_4g"}}, "note": "Where “and” joins values, the source holds several entries; their conditions need not be identical. Equal entries are not always repeated.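 For Fold of Basal in this document: compound tested at 1 µM final concentration.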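 For GPCRome agonism screen response in this document: fold over basal response of each receptor without drug.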"}
{"smiles": "CCOc1cccc2cc(C(C)NCC3(O)CCCCC3)oc12", "note": "(stereo not shown) [O4LE6]", "values": [{"measurement": "Fold of Basal", "setting": "320 non-olfactory GPCRs [1]", "value": "0.5251 and 0.72 and 0.7774 and 1.019"}, {"measurement": "Fold of Basal", "setting": "320 non-olfactory GPCRs [2]", "value": "0.7302 and 0.8478 and 0.8324 and 1.412"}, {"measurement": "GPCRome agonism screen response", "setting": "320 non-olfactory GPCRs [3]", "value": "0.6203 and 0.7336 and 1.113 and 1.811"}, {"measurement": "GPCRome agonism screen response", "setting": "320 non-olfactory GPCRs [4]", "value": "0.501 and 0.6269 and 0.3987 and 0.4556"}]}
